Where “and” joins values, the source holds several entries; their conditions need not be identical. Identical values can stand only once.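 Results reflect a 48-hour exposure of cells in 96-well plates to compound at five concentrations. GI50 = concentration required for 50% inhibition of growth. TGI denotes the concentration required for complete inhibition of growth.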
What was measured:
Assay in all cases: NCI tumour cell line growth inhibition, 48 h
M19-MEL melanoma = system: M19-MEL melanoma
XF 498 CNS = system: XF 498 CNS
DLD-1 colon = system: DLD-1 colon
LXFL 529 NSCLC = system: LXFL 529 NSCLC
SNB-78 CNS = system: SNB-78 CNS
HOP-18 NSCLC = system: HOP-18 NSCLC
KM20L2 colon = system: KM20L2 colon
RXF-631 renal = system: RXF-631 renal
MDA-N = system: MDA-N
P388/ADR leukemia = system: P388/ADR leukemia
P388 leukemia = system: P388 leukemia
SN12K1 renal = system: SN12K1 renal

Structure (SMILES) | TGI (M19-MEL melanoma) | TGI (XF 498 CNS) | TGI (DLD-1 colon) | TGI (LXFL 529 NSCLC) [µM] | TGI (SNB-78 CNS) [µM] | TGI (HOP-18 NSCLC) | TGI (KM20L2 colon) | TGI (RXF-631 renal) [µM] | TGI (MDA-N) | further results
c1ccc(OCc2nnc3n2N=C(c2ccccc2)CS3)cc1 | > 100 µM | > 100 µM | > 100 µM | > 100 | > 100 | – | – | – | – | –
COc1cccc(SSc2cccc(OC)c2C(=O)O)c1C(=O)O | > 100 µM | > 100 µM | > 100 µM | > 100 | > 100 | > 100 µM | > 100 µM | > 100 | – | –
COc1cc2ccnc3c(=C(SC)SC)c(=O)c(c1OC)c23 | 30.2 µM | – | 29.5 µM | 16.5 | – | 26.7 µM | 32.6 µM | 28.9 | – | –
Cc1c2c(c(C)c3c1[nH]c1ccccc13)CN(C)CC2 | 30.7 µM | – | > 100 µM | 28.2 | 55.9 | > 100 µM | 41.6 µM | 89.7 | – | –
CC(=O)OC1=CC2(OC(C)=O)CC(C)(C)C1C1C(=O)C=CC(=O)C12 (stereo not drawn) | > 100 µM | > 100 µM | > 100 µM | > 100 | > 100 | – | > 100 µM | > 100 | > 100 µM | –
CCC(C)C(=O)OCC(=O)c1ccc(-c2ccccc2)cc1 (stereo not drawn) | – | – | – | – | – | – | – | – | > 100 µM | –
OCCN(CCO)c1cccc(N(CCO)CCO)n1 | > 100 µM | > 100 µM | > 100 µM | > 100 | > 100 | – | > 100 µM | > 100 | – | –
CCC1(CN(C)C)CC/C(=C\c2ccc(OC)c(OC)c2)C1=O (stereo not drawn) | > 100 µM | > 100 µM | > 100 µM | > 100 | > 100 | > 100 µM | > 100 µM | > 100 | – | –
Cc1ccc(NC(=O)CCc2n[nH]c(=S)o2)cc1 | > 100 µM | > 100 µM | > 100 µM | > 100 | > 100 | > 100 µM | > 100 µM | > 100 | – | –
CC1OC(CC(=O)O)CC2=C1C(=O)c1c(O)cccc1C2=O (stereo not drawn) | 0.213 µM | 0.324 µM | 0.0781 µM | 0.218 | 0.383 | 3.88 µM | 1.2 µM | 3.01 | 0.518 µM | –
CCc1nc(N)nc(N)c1-c1ccc(Cl)c(N=[N+]=[N-])c1 | > 100 µM | 88.1 µM | > 100 µM | > 100 | > 100 | > 100 µM | > 100 µM | – | 53.9 µM and > 84.9 µM | GI50 (MDA-N): 0.812 µM and 5.03 µM
N#Cc1cccc(C=NC23CC4CC(CC(C4)C2)C3)c1 | > 100 µM | – | – | – | > 100 | – | > 100 µM | – | – | –
COc1cccc(N2C(=O)C3C4C=C5c6ccccc6N(c6ccccc6)C5(C3C2=O)[C@H]2C(=O)N(c3cccc(OC)c3)C(=O)[C@@H]42)c1 (stereo partly drawn) | > 100 µM | > 100 µM | > 100 µM | > 100 | > 100 | > 100 µM | > 100 µM | > 100 | – | –
CC([O-])=C1C(=O)c2ccccc2C1=O.CC([O-])=C1C(=O)c2ccccc2C1=O.CC[O-].CC[O-].[Ti+4] | – | – | > 100 µM | > 100 | – | > 100 µM | > 100 µM | > 100 | – | GI50 (HOP-18 NSCLC): > 100 µM; GI50 (KM20L2 colon): > 100 µM; GI50 (RXF-631 renal): > 100 µM; GI50 (DLD-1 colon): > 100 µM; GI50 (LXFL 529 NSCLC): 87.5 µM
COC(=O)Cc1cc(=O)[nH]c2c1C(=O)CCC2 | – | > 100 µM | > 100 µM | > 100 | – | > 100 µM | – | – | – | –
O=C1CCCCC12CCC/C2=N\O (stereo not drawn) | > 100 µM | – | > 100 µM | > 100 | > 100 | > 100 µM | > 100 µM | > 100 | – | –
O=[N+]([O-])c1cc2no[n+]([O-])c2cc1N1CCCCC1 | – | – | – | – | – | – | – | – | 7.06 µM | –
O=C1OC(=O)C2C3C=CC(C12)C1C2C=CC2C31 (stereo not drawn) | > 100 µM | > 100 µM | – | > 100 | – | > 100 µM | > 100 µM | > 100 | – | –
O=C(NCCCl)SCCO | > 100 µM | – | > 100 µM | > 100 | > 100 | – | > 100 µM | > 100 | – | –

Structure (SMILES) | TGI (M19-MEL melanoma) | TGI (XF 498 CNS) | TGI (DLD-1 colon) | TGI (LXFL 529 NSCLC) [µM] | TGI (SNB-78 CNS) [µM] | TGI (HOP-18 NSCLC) | TGI (KM20L2 colon) | TGI (RXF-631 renal) [µM] | TGI (MDA-N) | further results
CC1=Nc2c([nH]c(=S)[nH]c2=O)NC(c2c(Cl)cccc2Cl)C1 (stereo not drawn) | 3.17 µM | 10.9 µM | 5.85 µM | 10.2 | 25 | 30.2 µM | 13.6 µM | 22.5 | 1.99 µM | –
CN(C)c1cccc(F)c1C(=O)NC(=O)Nc1ccc(Cl)cc1 | – | – | – | – | – | – | – | – | 0.762 µM | –
O=C(O)c1c(Br)c(Br)c(Br)c(Br)c1C1c2ccc(O)cc2Oc2cc(O)ccc21 | – | – | – | – | – | – | – | – | > 100 µM | –
N#CC1=C(O)NC(O)=C(C#N)C1c1ccc(C2C(C#N)=C(O)NC(O)=C2C#N)cc1 | > 100 µM | > 100 µM | > 100 µM | > 100 | > 100 | > 100 µM | > 100 µM | > 100 | – | –
NC(=O)NC1C(C(=O)O)N(Cc2ccccc2)C(=O)N1Cc1ccccc1 (stereo not drawn) | > 100 µM | > 100 µM | > 100 µM | > 100 | > 100 | – | > 100 µM | – | – | –
Cc1ccc(C2NC(=O)c3ccccc3N2)c(C)c1 (stereo not drawn) | – | – | – | – | – | – | – | – | 0.701 µM | –
Cn1cc(C(=O)c2ccccc2)cc(C(=O)c2ccccc2)c1=O | > 100 µM | > 100 µM | > 100 µM | > 100 | > 100 | – | > 100 µM | > 100 | – | –
COCCOCCOCCOc1cccc2c1C(=O)c1cccc(OCCOCCOCCOC)c1C2=O | > 100 µM | > 100 µM | > 100 µM | > 100 | > 100 | > 100 µM | > 100 µM | > 100 | – | –
CC(=O)c1ccc(NC(=O)C(=O)C(C#N)CC(C)(C)C=O)cc1 (stereo not drawn) | > 100 µM | > 100 µM | – | > 100 | > 100 | – | > 100 µM | – | – | –
CCCCCCCCCCCc1c(O)c(=O)c2c(oc3c(=O)c(CCCCCCCCCCC)c(O)c(=O)c3n2-c2ccc(N(C)C)cc2)c1=O | – | 37.9 µM | 50.5 µM | 47.2 | > 100 | 42.9 µM | 38.5 µM | – | – | –
O=c1c2cc3c(cc2c2cccc4c2n1CCC4)OCO3 | > 100 µM | – | > 100 µM | > 100 | > 100 | > 100 µM | > 100 µM | – | – | –
CC(=O)NC(C=O)C(O[C@H](C)C(=O)NC(C)C(=O)NC(CCC(N)=O)C(=O)OCc1ccccc1)C(O)C(O)COC(=O)CCNc1c2ccccc2nc2cccc([N+](=O)[O-])c12 (stereo partly drawn) | 4.02 µM | 3.71 µM | 16.5 µM | 3.58 | 14.4 | > 100 µM | 5.58 µM | – | – | –
COc1cc2oc3c(c(=O)c2c(O)c1/C=C/C(C)C)C(C=C(C)C)Oc1cc(O)ccc1-3 (stereo not drawn) | – | – | – | – | – | – | – | – | 31.9 µM | –
CCN1C(=NCCO)NS(=O)(=O)c2ccccc21 | – | – | – | – | – | – | – | – | > 100 µM | –
COc1ccc2c(c1)-c1nn(CCCN(C)C)c3ccc([N+](=O)[O-])c(c13)N2 | 3.39 µM and 11.8 µM | 2.34 µM and 16.2 µM | 5.24 µM and 6.12 µM | – | – | 13.6 µM and 21 µM | 4.98 µM and 10.9 µM | – | 2.53 µM and 3.61 µM | TGI (P388/ADR leukemia): 0.925 µM; GI50 (KM20L2 colon): 0.0855 µM and 0.49 µM; GI50 (M19-MEL melanoma): 0.255 µM and 0.545 µM; GI50 (XF 498 CNS): 0.443 µM and 2.91 µM; TGI (P388 leukemia): 0.666 µM; TGI (SN12K1 renal): 0.682 µM; GI50 (MDA-N): 0.159 µM and 0.503 µM
COC1CC(N)C(O)C(C)O1 (stereo not drawn) | – | – | – | – | – | – | – | – | > 100 µM | –
CC(=O)c1ccc(NC(=O)COC(=O)c2cccc3c(=O)c4ccccc4[nH]c23)cc1 | > 100 µM | 55.5 µM | > 100 µM | > 100 | > 100 | > 100 µM | > 100 µM | > 100 | – | –
CC1(C)O[C@@H]2C[C@H]3[C@@H]4C[C@H](F)C5=CC(=O)C=C[C@]5(C)[C@@]4(F)[C@@H](O)C[C@]3(C)[C@]2(C(=O)CO)O1 | – | – | – | – | – | – | – | – | > 100 µM | –
COc1ccc(C(=O)C#Cc2c[nH]c(=O)[nH]c2=O)cc1 | 21.9 µM | – | 24.6 µM | 12.2 | 37.9 | > 50.1 µM | 22.8 µM | 34.1 | – | –

Reference: PubChem BioAssay (NCI)
